Key:
[1] = target: T1, GTPase KRas (Homo sapiens, UniProt P01116, G12C); test: Inhibition of KRAS G12C mutant in human MIAPaCa2 cells assessed as increase in accumulation of GDP bound KRAS G12C mutant protein incubated for 6 hrs; format: cell-based
[2] = target: T1, GTPase KRas; test: Inhibition of KRAS G12C mutant in human NCI-H358 cells assessed as increase in accumulation of GDP bound KRAS G12C mutant protein incubated for 6 hrs; format: cell-based

T1 sequence (P01116 whole entry G12C): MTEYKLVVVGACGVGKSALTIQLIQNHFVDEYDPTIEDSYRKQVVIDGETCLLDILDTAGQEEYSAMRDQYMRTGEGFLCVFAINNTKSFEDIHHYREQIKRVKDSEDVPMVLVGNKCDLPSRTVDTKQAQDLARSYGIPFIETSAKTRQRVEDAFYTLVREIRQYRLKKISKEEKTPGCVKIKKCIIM

| Structure (SMILES) | IC50 [1] | IC50 [2] |
| --- | --- | --- |
| C=CC(=O)N1CCN(c2ncnc3c2CCC(c2c(C)ccc4[nH]ncc24)C3)[C@@H](C)C1 (stereo partly drawn) | 4860 nM |  |
| C=CC(=O)N1CCN(c2nc(OC[C@H]3CCCN3C)nc3c2C[C@@H](C)[C@H](c2c(C)ccc4[nH]ncc24)C3)CC1 | 236 nM | 129 nM |
